Test results published in ChEMBL document CHEMBL5055676, “Novel methyllycaconitine analogues selective for the α4β2 over α7 nicotinic acetylcholine receptors” (Bioorg Med Chem, 2021).
Calls of active or inactive are those of the source. The calls are words filed in the database; no cut-off is given here.

Assays:
[1] = molecular target: T1, Neuronal acetylcholine receptor; alpha4/beta2 (Homo sapiens, UniProt P17787+P43681); experiment: Inhibition of human (alpha4)3(beta2)2 nAChR expressed in Xenopus laevis oocytes assessed as inhibition of acetylcholine-induced current response at 10 uM pretreated for 30 secs followed by co-application with acetylcholine measured at holding potential of -60 mV by two-electrode voltage-clamp method; type: cell-based; details: Oocyte, time 30.0 sec
[2] = molecular target: T1, Neuronal acetylcholine receptor; alpha4/beta2; experiment: Non-competitive antagonist activity at human (alpha4)3(beta2)2 nAChR expressed in Xenopus laevis oocytes decrease in acetylcholine-induced maximum current with non-significant change in Ach potency at IC50 pretreated for 30 secs followed by co-application with acetylcholine measured at holding potential of -60 mV by two-electrode voltage-clamp method; type: cell-based; details: Oocyte, time 30.0 sec
[3] = molecular target: T1, Neuronal acetylcholine receptor; alpha4/beta2; experiment: Inhibition of human (alpha4)2(beta2)3 nAChR expressed in Xenopus laevis oocytes assessed as inhibition of acetylcholine-induced current response at 10 uM pretreated for 30 secs followed by co-application with acetylcholine measured at holding potential of -60 mV by two-electrode voltage-clamp method; type: cell-based; details: Oocyte, time 30.0 sec
[4] = molecular target: T1, Neuronal acetylcholine receptor; alpha4/beta2; experiment: Inhibition of human (alpha4)3(beta2)2 nAChR expressed in Xenopus laevis oocytes assessed as inhibition of acetylcholine-induced current response in presence of 100 uM acetylcholine by two-electrode voltage-clamp method; type: cell-based, Oocyte; details: for logIC50: Oocyte
[5] = molecular target: T1, Neuronal acetylcholine receptor; alpha4/beta2; experiment: Inhibition of human (alpha4)2(beta2)3 nAChR expressed in Xenopus laevis oocytes assessed as inhibition of acetylcholine-induced current response in presence of 3 uM acetylcholine by two-electrode voltage-clamp method; type: cell-based, Oocyte; details: for logIC50: Oocyte
[6] = molecular target: Neuronal acetylcholine receptor; alpha4/beta2 (Rattus norvegicus, UniProt P09483+P12390); experiment: Inhibition of rat alpha4beta2 nAChR expressed in Xenopus laevis oocytes assessed as inhibition of acetylcholine-elicited current response measured at holding potential of -60 mV by two-electrode voltage-clamp method; type: cell-based, Oocyte
[7] = molecular target: Neuronal acetylcholine receptor subunit alpha-7 (Rattus norvegicus, UniProt Q05941); experiment: Inhibition of rat alpha7 nAChR expressed in Xenopus laevis oocytes assessed as inhibition of acetylcholine-elicited current response measured at holding potential of -60 mV by two-electrode voltage-clamp method; type: cell-based, Oocyte
Neuronal acetylcholine receptor subunit alpha-7, sequence (Q05941 whole entry): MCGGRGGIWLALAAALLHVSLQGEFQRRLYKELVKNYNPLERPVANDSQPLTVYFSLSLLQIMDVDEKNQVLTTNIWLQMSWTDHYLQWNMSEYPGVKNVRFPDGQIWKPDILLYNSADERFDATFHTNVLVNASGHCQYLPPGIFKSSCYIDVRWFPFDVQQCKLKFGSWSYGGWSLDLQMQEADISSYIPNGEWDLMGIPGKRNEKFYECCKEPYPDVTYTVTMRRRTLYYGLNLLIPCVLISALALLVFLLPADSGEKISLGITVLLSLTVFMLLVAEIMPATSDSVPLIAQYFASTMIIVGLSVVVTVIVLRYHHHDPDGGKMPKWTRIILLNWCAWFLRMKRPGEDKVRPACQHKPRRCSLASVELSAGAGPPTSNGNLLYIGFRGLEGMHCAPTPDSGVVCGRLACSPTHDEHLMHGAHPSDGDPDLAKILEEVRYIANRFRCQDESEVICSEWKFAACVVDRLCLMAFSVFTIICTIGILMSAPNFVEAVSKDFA

T1 sequence (P17787 whole entry): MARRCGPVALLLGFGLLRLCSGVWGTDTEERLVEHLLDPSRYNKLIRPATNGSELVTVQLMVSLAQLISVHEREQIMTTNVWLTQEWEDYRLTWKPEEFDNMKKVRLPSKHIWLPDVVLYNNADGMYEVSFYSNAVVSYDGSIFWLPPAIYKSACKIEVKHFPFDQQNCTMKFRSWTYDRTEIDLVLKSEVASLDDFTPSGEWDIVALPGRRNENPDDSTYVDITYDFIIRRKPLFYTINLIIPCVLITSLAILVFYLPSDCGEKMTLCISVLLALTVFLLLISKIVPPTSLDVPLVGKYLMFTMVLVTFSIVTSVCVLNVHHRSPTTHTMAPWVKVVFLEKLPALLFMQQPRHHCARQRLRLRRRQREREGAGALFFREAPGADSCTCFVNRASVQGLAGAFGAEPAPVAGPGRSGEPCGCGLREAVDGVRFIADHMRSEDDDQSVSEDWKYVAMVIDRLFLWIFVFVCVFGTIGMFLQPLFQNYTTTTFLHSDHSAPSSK
T1 sequence (P43681 whole entry): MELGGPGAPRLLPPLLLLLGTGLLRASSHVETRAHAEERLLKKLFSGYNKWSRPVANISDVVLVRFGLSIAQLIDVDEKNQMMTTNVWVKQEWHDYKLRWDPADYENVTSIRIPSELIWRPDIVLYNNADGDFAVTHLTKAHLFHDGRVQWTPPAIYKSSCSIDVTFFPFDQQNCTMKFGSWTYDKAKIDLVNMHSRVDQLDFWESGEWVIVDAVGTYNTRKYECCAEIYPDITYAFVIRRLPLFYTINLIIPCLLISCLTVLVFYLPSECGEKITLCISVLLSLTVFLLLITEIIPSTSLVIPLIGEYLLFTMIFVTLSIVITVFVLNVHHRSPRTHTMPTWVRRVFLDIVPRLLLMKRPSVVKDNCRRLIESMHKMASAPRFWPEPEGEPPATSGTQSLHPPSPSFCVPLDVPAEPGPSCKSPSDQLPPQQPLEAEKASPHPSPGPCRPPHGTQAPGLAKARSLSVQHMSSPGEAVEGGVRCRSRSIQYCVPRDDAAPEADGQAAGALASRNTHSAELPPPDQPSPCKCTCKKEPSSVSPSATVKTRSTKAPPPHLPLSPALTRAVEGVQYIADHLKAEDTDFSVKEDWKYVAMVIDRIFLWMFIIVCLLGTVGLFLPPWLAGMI
Neuronal acetylcholine receptor; alpha4/beta2 (Rattus norvegicus, UniProt P09483+P12390), sequence (P09483 whole entry): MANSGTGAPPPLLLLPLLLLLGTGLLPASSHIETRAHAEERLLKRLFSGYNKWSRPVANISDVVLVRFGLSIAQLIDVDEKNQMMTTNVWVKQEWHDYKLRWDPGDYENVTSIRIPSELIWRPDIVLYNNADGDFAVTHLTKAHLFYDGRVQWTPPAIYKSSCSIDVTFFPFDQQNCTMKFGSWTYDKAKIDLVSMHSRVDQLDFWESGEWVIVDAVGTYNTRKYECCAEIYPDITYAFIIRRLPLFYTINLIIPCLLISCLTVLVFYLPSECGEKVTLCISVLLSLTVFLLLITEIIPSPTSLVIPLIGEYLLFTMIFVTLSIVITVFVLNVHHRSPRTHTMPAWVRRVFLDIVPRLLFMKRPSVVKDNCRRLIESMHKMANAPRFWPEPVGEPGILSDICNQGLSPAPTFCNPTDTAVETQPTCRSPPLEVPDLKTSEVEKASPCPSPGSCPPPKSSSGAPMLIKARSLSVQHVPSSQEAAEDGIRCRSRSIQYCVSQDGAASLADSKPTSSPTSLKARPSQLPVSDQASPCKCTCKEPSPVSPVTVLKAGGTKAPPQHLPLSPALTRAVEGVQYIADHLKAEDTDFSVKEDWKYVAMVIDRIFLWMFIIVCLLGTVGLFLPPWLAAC
Neuronal acetylcholine receptor; alpha4/beta2 (Rattus norvegicus, UniProt P09483+P12390), sequence (P12390 whole entry): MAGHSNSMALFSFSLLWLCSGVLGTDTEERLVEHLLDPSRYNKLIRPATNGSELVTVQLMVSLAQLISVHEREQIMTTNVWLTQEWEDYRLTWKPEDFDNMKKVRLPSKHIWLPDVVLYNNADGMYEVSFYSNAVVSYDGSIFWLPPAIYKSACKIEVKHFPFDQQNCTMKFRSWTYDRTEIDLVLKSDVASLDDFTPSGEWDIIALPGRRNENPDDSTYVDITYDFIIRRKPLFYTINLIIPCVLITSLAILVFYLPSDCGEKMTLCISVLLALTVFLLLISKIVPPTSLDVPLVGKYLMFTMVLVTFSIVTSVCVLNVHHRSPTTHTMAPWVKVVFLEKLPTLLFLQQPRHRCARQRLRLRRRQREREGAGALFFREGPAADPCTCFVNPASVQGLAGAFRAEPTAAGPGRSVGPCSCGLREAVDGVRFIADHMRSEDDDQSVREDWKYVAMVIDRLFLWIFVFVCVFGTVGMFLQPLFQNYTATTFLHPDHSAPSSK

For `C=C1[C@@H]2CCC[C@@]1(COC(=O)c1ccccc1-c1ccc(NC(C)=O)cc1)CN(CC)C2`, the inhibition [1] was “Active”.

For `C=C1[C@@H]2CCC[C@@]1(COC(=O)c1ccccc1-c1ccc(NC(C)=O)cn1)CN(CC)C2`, the inhibition [1] was 60%, the inhibition [2] was “Active” and the inhibition [3] was “Active”. The IC50 [4] was 4.1 µM, the logIC50 [4] was 0.6 and the IC50 [5] was 29.1 µM. For the same molecule, the logIC50 [5] was 1.5.

`C=C1[C@@H]2CCC[C@@]1(COC(=O)c1ccccc1-c1cccnc1)CN(CC)C2` was tested, and the inhibition [1] was “Active”.

In the case of `C=C1[C@@H]2CCC[C@@]1(COC(=O)c1ccccc1-c1ccncc1)CN(CC)C2`, the inhibition [1] is reported as “Active”.

For `C=C1[C@@H]2CCC[C@@]1(COC(=O)c1ccccc1-c1ccccc1)CN(CC)C2`, the inhibition [1] was “Active”.

In the case of `C=C1[C@@H]2CCC[C@@]1(COC(=O)c1ccccc1-c1cncc(NC(C)=O)c1)CN(CC)C2`, the inhibition [1] is reported as 60% and the inhibition [3] is reported as “Active”.

`C=C1[C@@H]2CCC[C@@]1(COC(=O)c1ccccc1-c1cccc(NC(C)=O)n1)CN(CC)C2` was tested, and the inhibition [1] was 80%, the inhibition [2] was “Active” and the inhibition [3] was “Active”. For the same molecule, the IC50 [4] was 4.9 µM, the logIC50 [4] was 0.7 and the IC50 [5] was 27.3 µM. It also gave a logIC50 [5] of 1.4.

For `C=C1[C@@H]2CCC[C@@]1(COC(=O)c1ccccc1-c1cccc(NC(C)=O)c1)CN(CC)C2`, the inhibition [1] was “Active”.

For `C=C1[C@@H]2CCC[C@@]1(COC(=O)c1ccccc1-c1ccc(NC(C)=O)nc1)CN(CC)C2`, the inhibition [1] was 60% and the inhibition [3] was “Active”.

In the case of `C=C1[C@@H]2CCC[C@@]1(COC(=O)c1ccccc1-c1ccnc(NC(C)=O)c1)CN(CC)C2`, the inhibition [1] is reported as 60% and the inhibition [3] is reported as “Active”.

`C=C1[C@@H]2CCC[C@@]1(COC(=O)c1ccccc1-c1cc(NC(C)=O)ccn1)CN(CC)C2` was tested, and the inhibition [1] was 80%, the inhibition [2] was “Active” and the inhibition [3] was “Active”. The IC50 [4] was 3.9 µM, the logIC50 [4] was 0.6 and the IC50 [5] was 15 µM. For the same molecule, the logIC50 [5] was 1.2.

Work on `C=C1[C@@H]2CCC[C@@]1(COC(=O)c1ccccc1N1C(=O)CC(C)C1=O)CN(CC)C2` (stereo partly specified) yielded an IC50 [6] of 4.66 µM and an IC50 [7] of 20.7 µM.

`CCN1C[C@]2(COC(=O)c3ccccc3N3C(=O)C[C@H](C)C3=O)CC[C@H](OC)[C@]34C1[C@@](O)([C@@H](OC)[C@H]23)[C@@]1(O)C[C@H](OC)[C@H]2C[C@@H]4[C@@H]1[C@H]2OC` was tested, and the inhibition [1] was 95%, the inhibition [2] was “Active” and the inhibition [3] was “Active”. The logIC50 [4] was -1.1 and the logIC50 [5] was -0.8.

With `C=C1[C@@H]2CCC[C@@]1(COC(=O)c1ccccc1-c1ccccn1)CN(CC)C2` the inhibition [1] was 50% and the inhibition [3] was “Active”.
